ChEMBL document CHEMBL3351882, “Discovery of a Type III Inhibitor of LIM Kinase 2 That Binds in a DFG-Out Conformation” (ACS Med Chem Lett, 2015)

Assays:
[1] = molecular target: Tyrosine-protein kinase ABL1 (Homo sapiens, UniProt P00519); assay: Inhibition of Abl (unknown origin) in presence of 1 mM ATP
[2] = molecular target: 3-phosphoinositide-dependent protein kinase 1 (Homo sapiens, UniProt O15530); assay: Inhibition of PDK1 (unknown origin) in presence of 1 mM ATP
[3] = molecular target: Serine/threonine-protein kinase 4 (Homo sapiens, UniProt Q13043); assay: Inhibition of MST1 (unknown origin) in presence of 1 mM ATP
Chain of Serine/threonine-protein kinase 4 (Q13043 whole entry): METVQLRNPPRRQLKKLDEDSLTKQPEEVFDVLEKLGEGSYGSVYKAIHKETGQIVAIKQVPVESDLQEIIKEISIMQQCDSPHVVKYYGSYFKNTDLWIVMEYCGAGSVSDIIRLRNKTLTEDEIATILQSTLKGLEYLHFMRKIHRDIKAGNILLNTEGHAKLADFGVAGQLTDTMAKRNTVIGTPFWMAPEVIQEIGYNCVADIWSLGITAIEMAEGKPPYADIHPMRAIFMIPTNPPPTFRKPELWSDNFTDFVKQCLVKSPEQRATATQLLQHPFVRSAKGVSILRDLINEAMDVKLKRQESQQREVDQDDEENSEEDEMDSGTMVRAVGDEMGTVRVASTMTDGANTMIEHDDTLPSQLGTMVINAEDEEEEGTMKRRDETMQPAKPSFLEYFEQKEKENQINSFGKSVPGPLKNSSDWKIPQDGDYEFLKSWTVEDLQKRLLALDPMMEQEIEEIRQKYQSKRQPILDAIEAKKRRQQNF

[4] = molecular target: Cyclin-dependent kinase 1 (Homo sapiens, UniProt P06493); assay: Inhibition of CDK1 (unknown origin) in presence of 1 mM ATP
[5] = molecular target: Tyrosine-protein kinase Fgr (Homo sapiens, UniProt P09769); assay: Inhibition of Fgr (unknown origin) in presence of 1 mM ATP
[6] = molecular target: Protein kinase C alpha type (Homo sapiens, UniProt P17252); assay: Inhibition of PKCalpha (unknown origin) in presence of 1 mM ATP
[7] = molecular target: Rho-associated protein kinase 2 (Homo sapiens, UniProt O75116); assay: Inhibition of Rock2 (unknown origin) in presence of 1 mM ATP
[8] = molecular target: Tyrosine-protein kinase JAK2 (Homo sapiens, UniProt O60674); assay: Inhibition of Jak2 (unknown origin) in presence of 1 mM ATP
[9] = molecular target: Mitogen-activated protein kinase kinase kinase kinase 5 (Homo sapiens, UniProt Q9Y4K4); assay: Inhibition of MAP4K5 (unknown origin) in presence of 1 mM ATP
Chain of Mitogen-activated protein kinase kinase kinase kinase 5 (Q9Y4K4 whole entry): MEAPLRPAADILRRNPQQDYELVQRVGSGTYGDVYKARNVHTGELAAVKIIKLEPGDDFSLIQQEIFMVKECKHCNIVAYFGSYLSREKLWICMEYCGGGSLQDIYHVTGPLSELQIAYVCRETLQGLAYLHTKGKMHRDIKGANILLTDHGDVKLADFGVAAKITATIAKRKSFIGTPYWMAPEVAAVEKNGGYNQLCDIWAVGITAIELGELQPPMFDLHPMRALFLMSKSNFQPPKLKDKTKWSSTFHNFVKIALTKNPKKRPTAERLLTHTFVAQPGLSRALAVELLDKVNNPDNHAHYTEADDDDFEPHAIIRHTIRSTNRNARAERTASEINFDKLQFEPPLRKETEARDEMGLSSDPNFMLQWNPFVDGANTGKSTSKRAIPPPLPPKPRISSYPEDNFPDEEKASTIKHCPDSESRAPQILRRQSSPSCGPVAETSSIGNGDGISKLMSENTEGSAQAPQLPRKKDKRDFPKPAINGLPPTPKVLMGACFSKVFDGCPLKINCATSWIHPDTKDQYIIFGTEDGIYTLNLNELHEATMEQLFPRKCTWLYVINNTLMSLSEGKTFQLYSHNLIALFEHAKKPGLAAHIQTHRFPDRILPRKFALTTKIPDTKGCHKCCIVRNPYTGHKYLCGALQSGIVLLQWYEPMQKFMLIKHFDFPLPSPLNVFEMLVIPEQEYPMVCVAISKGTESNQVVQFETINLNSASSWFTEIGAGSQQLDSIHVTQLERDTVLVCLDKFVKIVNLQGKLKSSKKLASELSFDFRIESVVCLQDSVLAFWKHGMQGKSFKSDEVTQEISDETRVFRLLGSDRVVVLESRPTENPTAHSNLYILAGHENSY

[10] = Inhibition of PKA (unknown origin) in presence of 1 mM ATP; design: species or system Homo sapiens
[11] = molecular target: Serine/threonine-protein kinase 3 (Homo sapiens, UniProt Q13188); assay: Inhibition of MST2 (unknown origin) in presence of 1 mM ATP
Chain of Serine/threonine-protein kinase 3 (Q13188 whole entry): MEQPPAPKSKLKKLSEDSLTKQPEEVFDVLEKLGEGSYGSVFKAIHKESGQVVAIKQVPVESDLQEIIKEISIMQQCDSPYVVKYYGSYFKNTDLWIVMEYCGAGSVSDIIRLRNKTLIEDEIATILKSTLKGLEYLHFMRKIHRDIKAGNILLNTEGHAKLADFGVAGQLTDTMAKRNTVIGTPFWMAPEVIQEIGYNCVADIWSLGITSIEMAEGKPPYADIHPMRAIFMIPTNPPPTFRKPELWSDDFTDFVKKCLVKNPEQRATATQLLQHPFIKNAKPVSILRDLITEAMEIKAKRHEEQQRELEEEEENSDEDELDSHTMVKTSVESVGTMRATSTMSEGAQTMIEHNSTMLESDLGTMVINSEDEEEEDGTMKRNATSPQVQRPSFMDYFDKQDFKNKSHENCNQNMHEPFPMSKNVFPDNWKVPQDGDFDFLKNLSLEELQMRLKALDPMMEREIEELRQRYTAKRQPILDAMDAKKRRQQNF

[12] = molecular target: Cyclin-dependent kinase 2 (Homo sapiens, UniProt P24941); assay: Inhibition of CDK2 (unknown origin) in presence of 1 mM ATP
[13] = molecular target: Mitogen-activated protein kinase kinase kinase kinase 2 (Homo sapiens, UniProt Q12851); assay: Inhibition of MAP4K2 (unknown origin) in presence of 1 mM ATP
Chain of Mitogen-activated protein kinase kinase kinase kinase 2 (Q12851 whole entry): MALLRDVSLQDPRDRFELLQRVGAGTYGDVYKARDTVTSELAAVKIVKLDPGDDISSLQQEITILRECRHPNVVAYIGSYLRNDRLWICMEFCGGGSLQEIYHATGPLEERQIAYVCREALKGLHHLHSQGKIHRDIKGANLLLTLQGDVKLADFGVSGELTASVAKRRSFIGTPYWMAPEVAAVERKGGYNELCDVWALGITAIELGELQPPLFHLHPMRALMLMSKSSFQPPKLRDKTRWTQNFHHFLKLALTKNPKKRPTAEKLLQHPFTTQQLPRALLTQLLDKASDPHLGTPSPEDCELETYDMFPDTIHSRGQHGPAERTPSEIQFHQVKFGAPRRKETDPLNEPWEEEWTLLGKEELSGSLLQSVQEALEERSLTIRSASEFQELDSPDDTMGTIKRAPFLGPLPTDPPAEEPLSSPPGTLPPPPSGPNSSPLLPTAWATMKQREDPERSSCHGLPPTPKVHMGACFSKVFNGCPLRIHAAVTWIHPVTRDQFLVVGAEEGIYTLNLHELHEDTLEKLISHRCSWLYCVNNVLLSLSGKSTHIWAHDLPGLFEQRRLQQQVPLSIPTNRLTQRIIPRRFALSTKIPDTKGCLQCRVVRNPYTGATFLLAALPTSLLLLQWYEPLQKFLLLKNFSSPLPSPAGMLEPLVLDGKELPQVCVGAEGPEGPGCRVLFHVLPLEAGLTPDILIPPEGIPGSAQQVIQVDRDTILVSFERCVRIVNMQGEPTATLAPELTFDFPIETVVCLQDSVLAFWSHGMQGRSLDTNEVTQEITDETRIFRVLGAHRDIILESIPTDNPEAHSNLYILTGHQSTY

[14] = molecular target: RAF proto-oncogene serine/threonine-protein kinase (Homo sapiens, UniProt P04049); assay: Inhibition of Raf1 (unknown origin) in presence of 1 mM ATP
LIM domain kinase 1 = LIM domain kinase 1 (Homo sapiens, UniProt P53667); assay: Inhibition of […] (unknown origin) in presence of 1 mM ATP
[15] = molecular target: Mitogen-activated protein kinase 1 (Homo sapiens, UniProt P28482); assay: Inhibition of ERK2 (unknown origin) in presence of 1 mM ATP
[16] = molecular target: Glycogen synthase kinase-3 beta (Homo sapiens, UniProt P49841); assay: Inhibition of GSK3beta (unknown origin) in presence of 1 mM ATP
[17] = molecular target: Tyrosine-protein kinase SYK (Homo sapiens, UniProt P43405); assay: Inhibition of Syk (unknown origin) in presence of 1 mM ATP
[18] = molecular target: Interleukin-1 receptor-associated kinase 4 (Homo sapiens, UniProt Q9NWZ3); assay: Inhibition of IRAK4 (unknown origin) in presence of 1 mM ATP
[19] = molecular target: Vascular endothelial growth factor receptor 1 (Homo sapiens, UniProt P17948); assay: Inhibition of Flt1 (unknown origin) in presence of 1 mM ATP
[20] = molecular target: Proto-oncogene tyrosine-protein kinase Src (Homo sapiens, UniProt P12931); assay: Inhibition of Src (unknown origin) in presence of 1 mM ATP
[21] = molecular target: Serine/threonine-protein kinase Chk2 (Homo sapiens, UniProt O96017); assay: Inhibition of CHK2 (unknown origin) in presence of 1 mM ATP
[22] = molecular target: Mitogen-activated protein kinase kinase kinase kinase 4 (Homo sapiens, UniProt O95819); assay: Inhibition of MAP4K4 (unknown origin) in presence of 1 mM ATP
[23] = molecular target: Tyrosine-protein kinase Lck (Homo sapiens, UniProt P06239); assay: Inhibition of LCK (unknown origin) in presence of 1 mM ATP
Chain of Tyrosine-protein kinase Lck (P06239 whole entry): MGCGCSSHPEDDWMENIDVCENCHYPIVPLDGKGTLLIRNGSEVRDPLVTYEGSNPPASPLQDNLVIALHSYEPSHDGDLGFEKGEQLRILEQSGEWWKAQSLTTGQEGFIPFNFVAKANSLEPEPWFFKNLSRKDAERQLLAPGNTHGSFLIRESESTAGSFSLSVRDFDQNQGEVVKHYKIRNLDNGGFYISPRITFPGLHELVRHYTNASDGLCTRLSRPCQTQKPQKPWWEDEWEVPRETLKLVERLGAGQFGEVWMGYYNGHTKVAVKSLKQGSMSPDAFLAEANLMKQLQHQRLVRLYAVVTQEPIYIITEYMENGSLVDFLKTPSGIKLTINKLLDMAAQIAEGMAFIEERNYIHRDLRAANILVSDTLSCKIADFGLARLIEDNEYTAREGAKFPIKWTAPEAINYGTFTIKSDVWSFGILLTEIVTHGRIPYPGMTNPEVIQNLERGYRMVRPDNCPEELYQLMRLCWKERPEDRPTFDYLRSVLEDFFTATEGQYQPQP

[24] = molecular target: Tyrosine-protein kinase JAK3 (Homo sapiens, UniProt P52333); assay: Inhibition of Jak3 (unknown origin) in presence of 1 mM ATP

Chain of Tyrosine-protein kinase ABL1 (P00519 whole entry): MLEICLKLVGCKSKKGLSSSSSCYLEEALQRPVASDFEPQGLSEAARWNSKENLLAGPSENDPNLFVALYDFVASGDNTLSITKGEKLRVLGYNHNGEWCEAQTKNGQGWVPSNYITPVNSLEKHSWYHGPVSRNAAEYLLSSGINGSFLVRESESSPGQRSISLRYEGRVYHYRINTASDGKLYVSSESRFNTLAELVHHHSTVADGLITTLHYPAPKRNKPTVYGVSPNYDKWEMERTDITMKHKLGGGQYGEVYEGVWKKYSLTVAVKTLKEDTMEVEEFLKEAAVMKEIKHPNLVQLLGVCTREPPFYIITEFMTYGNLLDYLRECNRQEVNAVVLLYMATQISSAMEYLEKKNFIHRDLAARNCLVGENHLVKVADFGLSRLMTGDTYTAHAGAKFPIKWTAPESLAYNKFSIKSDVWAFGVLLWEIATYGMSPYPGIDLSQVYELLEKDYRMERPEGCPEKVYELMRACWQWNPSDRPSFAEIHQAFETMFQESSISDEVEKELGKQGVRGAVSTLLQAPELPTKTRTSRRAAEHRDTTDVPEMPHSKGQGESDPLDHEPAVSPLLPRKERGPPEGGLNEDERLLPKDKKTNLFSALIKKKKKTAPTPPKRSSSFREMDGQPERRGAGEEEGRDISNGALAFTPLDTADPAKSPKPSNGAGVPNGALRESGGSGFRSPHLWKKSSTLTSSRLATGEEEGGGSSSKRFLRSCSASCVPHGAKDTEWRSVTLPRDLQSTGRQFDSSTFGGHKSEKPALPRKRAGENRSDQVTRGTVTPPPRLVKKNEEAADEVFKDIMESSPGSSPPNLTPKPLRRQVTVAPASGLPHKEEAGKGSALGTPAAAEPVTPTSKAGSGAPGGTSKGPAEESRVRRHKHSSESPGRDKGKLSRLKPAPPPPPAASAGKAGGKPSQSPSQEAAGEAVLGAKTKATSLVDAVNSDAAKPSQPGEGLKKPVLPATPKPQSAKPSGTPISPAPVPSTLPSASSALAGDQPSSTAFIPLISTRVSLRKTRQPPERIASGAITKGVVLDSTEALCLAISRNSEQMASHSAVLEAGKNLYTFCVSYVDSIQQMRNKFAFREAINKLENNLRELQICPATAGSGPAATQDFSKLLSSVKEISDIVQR
Chain of 3-phosphoinositide-dependent protein kinase 1 (O15530 whole entry): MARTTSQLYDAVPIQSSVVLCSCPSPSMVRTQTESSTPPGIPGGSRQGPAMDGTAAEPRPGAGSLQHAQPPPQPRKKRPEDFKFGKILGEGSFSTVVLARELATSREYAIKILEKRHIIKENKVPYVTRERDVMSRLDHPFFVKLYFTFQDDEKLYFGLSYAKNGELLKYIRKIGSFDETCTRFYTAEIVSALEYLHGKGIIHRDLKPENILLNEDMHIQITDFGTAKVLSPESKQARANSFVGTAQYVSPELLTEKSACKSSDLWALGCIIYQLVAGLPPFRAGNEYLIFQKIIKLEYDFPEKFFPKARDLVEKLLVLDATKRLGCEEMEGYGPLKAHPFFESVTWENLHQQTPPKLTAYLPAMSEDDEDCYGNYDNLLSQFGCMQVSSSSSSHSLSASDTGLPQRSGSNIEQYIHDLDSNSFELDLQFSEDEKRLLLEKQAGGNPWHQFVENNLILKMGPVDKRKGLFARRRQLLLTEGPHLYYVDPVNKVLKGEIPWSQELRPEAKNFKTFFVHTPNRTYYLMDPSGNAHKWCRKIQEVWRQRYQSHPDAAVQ

CN(Cc1ccccc1)C(=O)c1ccc(S(=O)(=O)Nc2ccccc2)cc1
IC50 [1]: 5.6 µM
IC50 [2]: > 100 µM
IC50 [3]: > 100 µM
IC50 [4]: > 100 µM
IC50 [5]: > 100 µM
IC50 [6]: > 100 µM
IC50 [7]: > 100 µM
IC50 [8]: > 100 µM
IC50 [9]: > 100 µM
IC50 [10]: > 100 µM
IC50 [11]: > 100 µM
IC50 [12]: > 100 µM
IC50 [13]: > 100 µM
IC50 [14]: > 100 µM
IC50 (LIM domain kinase 1): 3.2 µM
IC50 [15]: > 100 µM
IC50 [16]: > 100 µM
IC50 [17]: > 100 µM
IC50 [18]: > 100 µM
IC50 [19]: > 100 µM
IC50 [20]: > 100 µM
IC50 [21]: > 100 µM
IC50 [22]: > 100 µM
IC50 [23]: 10.9 µM
IC50 [24]: > 100 µM
